Data reported in patent US6479466B1, “Compositions for treating viral infections, and methods therefor” (University of Maryland, priority 1999, dated 2002).

Assays:
HIV-162V, 751, 77L, 151M = assay: p24 antigen in activated PBMCs infected with isolate 62V, 75I, 77L, 151M; type: cell-based, HIV-1; details: Human immunodeficiency virus 1, PBMC, read-out: ddI IC90
Text: The present example provides data to test whether viral isolates carrying mutations in the RT gene that confer resistance to ddI could be rendered sensitive when the nucleoside analogue was combined with RV. Viruses containing one or more of the mutations associated with resistance to ddI, e.g., an isolate carrying the L74V mutation which confers primary resistance to ddI, a virus isolate carrying 4 different resistance-associated mutations in the RT gene (HIV-1 RTMDR1) were used to infect PHA-stimulated PBMCs. The HIV-174V isolate, and the HIV-1RTMDR1 isolate (containing the M41L, L74V, V106A and T215Y mutations, conferring resistance to AZT, ddI, nevirapine and other non-nucleotide RT inhibitors) were obtained from Dr. Larder at the National Institutes of Health AIDS Research and Reference Reagent Program (Catalog #2528 and #2529, respectively, Rockville, Md.). In addition, viruses having mutations 65R, 74V, 184V in the RT gene, and a virus containing the multiple-nucleoside-resistance mutation 151M were assayed in infectivity assays using RV plus ddI. The mutations present in the RT gene of each virus as well as their susceptibility to ddI are as follows: HIV-174V(ddIIC90=2.6 μM); HIV-141L, 74V, 106A, 215Y (ddIIC90=4.5 μM); HIV-165R, 74V, 184V (ddIIC90>20 μM) and HIV-162V, 751, 77L, 151M (ddIIC90>20 μM). […]

PHA-stimulated PBMCs = assay: MTT cell proliferation assay in PHA-stimulated PBMCs; type: cell-based, human
Protocol: (§1) The effect of RV and […] on PBMC proliferation at the concentrations shown to enhance the anti-HIV effect of ddI were examined. Cellular proliferation in culture in the presence or absence of drugs was measured by commercial MTT assay, according to the manufacturer's instructions (Boehringer Mannheim). Cell viability was determined by trypan blue staining.
Proliferation was measured on PHA-stimulated PBMCs cultured in the presence of IL-2, 2 μM ddI, and RV or HU. The MTT assay was performed on days 2 and 5 (FIG. 8), and days 2 and 7 (FIG. 20) after the addition of the drugs. […] On day 5, RV at 10 μM inhibited proliferation by 30%, whereas HU inhibited proliferation by 40 to 50%, depending on the donor.
Proliferating PBMCs were cultured in the presence of RV or HU for 5 days. On day 2 and 5 an MTT assay and a ^3H-thymidine incorporation assay were performed. The MTT is a […] assay that measures cellular metabolic activity and directly correlates to the number of cells in the culture. The ^3H-thymidine incorporation assay relies on the incorporation of the radioactive nucleoside ^3H-thymidine into newly synthesized DNA. […] These differences between the effects of RV and HU were even more striking in the MTT and ^3H-thymidine incorporation assays conducted on day 5 (FIG. 12 and FIG. 13, respectively).

PHA-activated PBMCs [1] = assay: Cell viability by trypan blue staining in PHA-activated PBMCs; type: cell-based, human
Protocol: as §1
In a separate study designed to assess cell viability by trypan blue staining, PHA-activated PBMCs were cultured for 7 days in the presence of IL-2, 2 μM ddI, plus varying concentrations of RV. When RV was used at 25 μM, over 60% of cells became trypan blue stained, therefore indicating cell death. In the absence of RV or when RV was used at 5 or 10 μM, values of more than 95% cell viability were obtained.

PHA-activated PBMCs [2] = assay: 3H-thymidine incorporation (DNA synthesis) assay in proliferating PBMCs; type: cell-based, human; details: RV 10 μM; day 2
Protocol: For example, a thymidine incorporation assay using PBMC's may be carried out as follows. PBMC's are suspended, then 0.1 ml (100,000) of cells are added to each designated well of a 96-well plate. The plates are placed into a 37° C., 5% CO2, 95% humid incubator for the predetermined incubation periods—normally 2 and 5 days. At the end of the incubation period, and at a standard time prior to harvesting the plate (6-18 hours), 1.0-1.5 μCi (20 μl of 50-75 mCi/ml in complete medium) of [^3H]-labeled methyl thymidine is added to each well of the assay. The plates are then incubated for the remaining 6-18 hours. At the end of the [^3H]-thymidine pulse, the plates are harvested onto filter paper using a semi-automated multi-well harvester. The filter paper containing bound DNA may be dried using either ethanol or by moderate microwave heating. The filter paper samples are counted in a scintillation counter using standard procedures.

| Structure (SMILES) | IC90 (HIV-162V, 751, 77L, 151M) | impact on cell proliferation (PHA-stimulated PBMCs; 5 μM RV, with IL-2 and 2 μM ddI) | OD values in the MTT assay (PHA-stimulated PBMCs; 10 μM RV, day 7, with IL-2 and 2 μM ddI) | MTT values (PHA-stimulated PBMCs; RV 10 μM, day 2, no ddI) | inhibition of proliferation (PHA-stimulated PBMCs; RV 10 μM, day 2, with IL-2 and 2 μM ddI) | inhibition of proliferation (PHA-stimulated PBMCs; RV 10 μM, day 5, with IL-2 and 2 μM ddI) | toxicity to cells (PHA-activated PBMCs [1]; RV 10 μM) | trypan blue stained cells (cell death) (PHA-activated PBMCs [1]; RV 25 μM, 7 days, with IL-2 and 2 μM ddI) | cell viability (PHA-activated PBMCs [1]; RV 5 or 10 μM, 7 days, with IL-2 and 2 μM ddI) | 3H-thymidine incorporation (DNA synthesis) (PHA-activated PBMCs [2]) |
| --- | --- | --- | --- | --- | --- | --- | --- | --- | --- | --- |
| OC[C@@H]1CC[C@H](n2cnc3c(O)ncnc32)O1 [ddI, 2′,3′-dideoxyinosine] | > 20 µM |  |  |  |  |  |  |  |  |  |
| Oc1ccc(/C=C/c2cc(O)cc(O)c2)cc1 [RV, trans-3, 4′, 5-trihydroxystilbene] |  | Minimal impact on cell proliferation | higher than those obtained with 100 μM HU | slightly lower than the untreated control | inhibited proliferation slightly | 30% | not toxic | over 60% | more than 95% | higher amounts of ^3H-thymidine incorporation than the untreated control |
